Data reported in the OligoGym collection.
Several values for one entry are separate records, joined by “and”; a condition that tells them apart may be missing. Equal values may be shown once. After the bases stand the sugars from the 5' end (letter, count) and the backbone: PS all phosphorothioate, else s phosphorothioate and o phosphodiester by linkage. Methylation of C is not given here. e = 2'-O-(2-methoxyethyl) (MOE); k = constrained ethyl (cEt); d = 2'-deoxy (DNA)

Target: IRF5
Details: ASO

| Sequence | target mRNA inhibition (KARPAS-229, 4 µM) | other results |
| --- | --- | --- |
| AAACCATTCTATGCCT (sugars k3 d10 k3, PS) | 0% |  |
| AAAGGGTGAGTAGGAC (sugars k3 d10 k3, PS) | 24% |  |
| AACCATTCTATGCCTT (sugars k3 d10 k3, PS) | 33% |  |
| AAGGGCACAGCGCAGG (sugars kkddddddddddkeke, PS) | 0% |  |
| AAGGGCACAGCGCAGG (sugars kkddddddddkekekk, PS) | 0% |  |
| AAGGGCACAGCGCAGG (sugars kkkddddddddkdkdk, PS) | 12% |  |
| ACATCCATCAATGAGG (sugars k3 d10 k3, PS) | 0% |  |
| ACATCTCCACATCAGT (sugars kkddddddddddkeke, PS) | 36% |  |
| ACATCTCCACATCAGT (sugars kkddddddddkekekk, PS) | 15% |  |
| ACCACTGTGTACCCCA (sugars kdddddddddkekeke, PS) | 40% |  |
| ACCACTGTGTACCCCA (sugars kkddddddddddkeke, PS) | 66% and 56% | target mRNA inhibition (KARPAS-229, 0.44444 µM): 26%; target mRNA inhibition (KARPAS-229, 1.33333 µM): 38%; target mRNA inhibition (KARPAS-229, 12 µM): 70% |
| ACCACTGTGTACCCCA (sugars kkkddddddddkekek, PS) | 6% |  |
| ACTGACACAGGCGGAT (sugars kkdddddddddkdkdk, PS) | 6% |  |
| ACTGACACAGGCGGAT (sugars kkddddddddkekekk, PS) | 0% |  |
| AGACGAGCAAAGGGTG (sugars k3 d10 k3, PS) | 35% |  |
| AGATGGTGTTATCTCC (sugars kddddddddddkekek, PS) | 0% |  |
| AGATGGTGTTATCTCC (sugars kkdddddddddkekek, PS) | 0% |  |
| AGATGGTGTTATCTCC (sugars kkddddddddkekekk, PS) | 0% |  |
| AGATGGTGTTATCTCC (sugars kkkddddddddkekek, PS) | 0% |  |
| AGCTTGGTCTTGACCT (sugars k3 d10 k3, PS) |  | target mRNA inhibition (KARPAS-229, 0.44444 µM): 33%; target mRNA inhibition (KARPAS-229, 1.33333 µM): 41%; target mRNA inhibition (KARPAS-229, 12 µM): 55% |
| AGCTTGGTCTTGACCT (sugars kekdddddddddeekk, PS) | 38% |  |
| AGCTTGGTCTTGACCT (sugars kkddddddddkekekk, PS) | 0% |  |
| AGCTTGGTCTTGACCT (sugars kkkddddddddkdkdk, PS) | 12% |  |
| AGGAAGTGAGTCTCAA (sugars kekdddddddddeekk, PS) | 43% |  |
| AGGAAGTGAGTCTCAA (sugars kkddddddddddkeke, PS) | 39% |  |
| AGGAAGTGAGTCTCAA (sugars kkdddddddddkekek, PS) | 42% |  |

| Sequence | target mRNA inhibition (KARPAS-229, 4 µM) | other results |
| --- | --- | --- |
| AGGAAGTGAGTCTCAA (sugars kkkddddddddkdkdk, PS) | 40% |  |
| AGGAGTGAGACGAGCA (sugars k3 d10 k3, PS) | 56% and 58% | target mRNA inhibition (KARPAS-229, 0.44444 µM): 12%; target mRNA inhibition (KARPAS-229, 1.33333 µM): 41%; target mRNA inhibition (KARPAS-229, 12 µM): 70% |
| AGGAGTGAGACGAGCA (sugars kekdddddddddeekk, PS) | 22% |  |
| AGGAGTGAGACGAGCA (sugars kkdddddddddkekek, PS) | 36% |  |
| AGGAGTGAGACGAGCA (sugars kkkdddddddddkeke, PS) | 42% |  |
| AGGTTCTTGGACTCTC (sugars k2 d8 e4 k2, PS) | 17% |  |
| AGGTTCTTGGACTCTC (sugars k2 d9 e3 k2, PS) | 0% |  |
| AGGTTCTTGGACTCTC (sugars kddddddddddkekek, PS) | 34% |  |
| AGGTTCTTGGACTCTC (sugars kkdddddddddkekek, PS) | 38% |  |
| ATCACCACTGTGTACC (sugars k3 d9 k3 e1, PS) | 19% |  |
| ATCACCACTGTGTACC (sugars kkdddddddddkekek, PS) | 0% |  |
| ATCACCACTGTGTACC (sugars kkddddddddkekekk, PS) | 0% |  |
| ATGAGTCATGGGCTGA (sugars k3 d9 k3 e1, PS) | 20% |  |
| ATGAGTCATGGGCTGA (sugars kddddddddddkekek, PS) | 0% |  |
| ATGAGTCATGGGCTGA (sugars kkddddddddddkeke, PS) | 0% |  |
| ATGAGTCATGGGCTGA (sugars kkdddddddddkekek, PS) | 0% |  |
| ATGGTGTTATCTCCGT (sugars kdddddddddkekeke, PS) | 0% |  |
| ATTCCAATTTTGCATT (sugars k3 d10 k3, PS) | 21% |  |
| ATTTCTGCTCCAGGTT (sugars kdddddddddkekeke, PS) | 13% |  |
| ATTTCTGCTCCAGGTT (sugars kkddddddddkekekk, PS) | 6% |  |
| ATTTGCCTTCTGCAGG (sugars k3 d10 k3, PS) | 0% |  |
| ATTTTGTGACTGTATT (sugars k3 d10 k3, PS) | 4% |  |
| CAATTTTGCATTCCAT (sugars kkddddddddkekekk, PS) | 32% |  |
| CACATCTCCACATCAG (sugars kddddddddddkekek, PS) | 15% |  |
| CACATCTCCACATCAG (sugars kkdddddddddkekek, PS) | 22% |  |
